# Laboratory results: patent US20260159500A1, “KINESIN KIF18A INHIBITOR AND USE THEREOF” (SHANGHAI APEIRON THERAPEUTICS COMPANY LIMITED, priority 2022, published 2026)
# What was measured:
# OVCAR3 cells = test: Cell proliferation activity test in OVCAR3 cells (CyQUANT Direct); format: cell-based; conditions: Homo sapiens, OVCAR-3, 72 h, 3 days incubation, CyQUANT fluorescence detection, read-out: OVCAR-3_IC50_nM
# Method in brief: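 Log-phase cells in RPMI-1640 with 10% FBS were seeded overnight, then exposed to compound at final 0–10 μM (0.2% DMSO) for 3 days at 37 °C, 5% CO2. Proliferation was read by CyQUANT Direct fluorescence after 60 min at 37 °C.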
# [1] = biological target: T1, Human KIF18A (amino acid sequence 1-417) (Homo sapiens, UniProt Q8NI77); test: Enzymatic activity test (ADP-Glo, microtubule-stimulated KIF18A ATPase); format: biochemical; conditions: 60 μg/mL microtubules, 25 μM ATP, 2.5 nM KIF18A protein, 120 min at ambient temperature, read-out: KIF18A_nM
# T1 construct: purchased Viva Biotech (Shanghai) Ltd
# T1 sequence (Q8NI77 1-417): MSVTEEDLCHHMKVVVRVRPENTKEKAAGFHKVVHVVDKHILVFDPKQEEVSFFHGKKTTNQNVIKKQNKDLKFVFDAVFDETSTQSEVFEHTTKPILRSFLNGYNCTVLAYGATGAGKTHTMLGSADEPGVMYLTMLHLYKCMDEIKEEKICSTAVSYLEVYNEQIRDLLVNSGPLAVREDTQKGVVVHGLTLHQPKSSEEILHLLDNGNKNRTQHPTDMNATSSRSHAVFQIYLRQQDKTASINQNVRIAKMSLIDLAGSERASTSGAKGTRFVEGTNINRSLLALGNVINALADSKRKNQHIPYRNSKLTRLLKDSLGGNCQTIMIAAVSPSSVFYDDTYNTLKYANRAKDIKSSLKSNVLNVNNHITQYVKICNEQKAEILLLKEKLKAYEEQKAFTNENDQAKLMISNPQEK
# Method in brief: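 Microtubule-stimulated ATPase of KIF18A(1-417) run with 60 μg/mL microtubules, 25 μM ATP and 2.5 nM enzyme, compounds at 0-10 μM final, 120 min at ambient temperature. ADP formed was read by ADP-Glo chemiluminescence after two 30-min reagent incubations.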
# HT29 cells = test: CyQuant cell proliferation activity test in HT29 cells; format: cell-based; conditions: Homo sapiens, HT-29, 72 h, 2000 cells per well, 3 days incubation, IC50 by XLFIT, read-out: HT29_IC50_nM
# Method in brief: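 Cells seeded at 2000/well in RPMI-1640 with 10% FBS, overnight, then exposed 3 days at 37 °C to compound from 3000 nM top, 3-fold, 9 points, 0.2% DMSO. CyQuant read after 1 h; IC50 from curve fit.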
IC50 (OVCAR3 cells) [nM],IC50 [1] [nM],IC50 (HT29 cells) [nM],Compound
121,121,25,Cn1ccc2cc(NC(=O)c3ccc(NS(=O)(=O)CCO)cc3N3CCC4(CC3)CC4)nc(N3CCC(F)(F)CC3)c21 [Example 37]
23,13,33,"Cc1nnc2cc(NC(=O)c3ccc(NS(=O)(=O)CCO)cc3N3CCC4(CC3)CC4)nc(N3CCC(F)(F)CC3)n12 [Example 27, N-(5-(4,4-difluoropiperidin-1-yl)-3-methyl-[1,2,4]triazolo[4,3-c]pyrimidin-7-yl)-4-(2-hydroxyethylsulfonamido)-2-(6-azaspiro[2.5]octan-6-yl)benzamide]"
18,128,17,"O=C(Nc1cc2cccnc2c(N2CCC(F)(F)CC2)c1F)c1ccc(NS(=O)(=O)CCO)cc1N1CCC2(CC1)CC2 [Example 71, N-(8-(4,4-difluoropiperidin-1-yl)-7-fluoroquinolin-6-yl)-4-((2-hydroxyethyl)sulfonamido)-2-(6-azaspiro[2.5]octan-6-yl]benzamide]"
13,33,14,"O=C(Nc1cc(N2CCC(F)(F)CC2)c2nnccc2c1)c1ccc(NS(=O)(=O)CCO)cc1N1CCC2(CC1)CC2 [Example 82, 2-{6-azaspiro[2.5]octan-6-yl}-N-[8-(4,4-difluoropiperidin-1-yl)misonin-6-yl]-4-(2-hydroxyethanesulfonamido)benzamide]"
83,387,44,"Cc1ccc2cc(NC(=O)c3ccc(NS(=O)(=O)CCO)cc3N3CCC4(CC3)CC4)c(F)c(N3CCC(F)(F)CC3)c2n1 [Example 75, N-(8-(4,4-difluoropiperidin-1-yl)-7-fluoro-2-methylquinolin-6-yl)-4-((2-hydroxyethyl)sulfonamido)-2-(6-azaspiro[2.5]octan-6-yl)benzamide]"
1040,1030,1110,"O=C(Nc1cc(N2CCC(F)(F)CC2)c2nc(C(F)(F)F)ccc2c1)c1ccc(NS(=O)(=O)CCO)cc1N1CCC2(CC1)CC2 [Example 69, (2-(6-Azaspiro[2.5]octan-6-yl)-4-{[(2-hydroxyethyl)sulfonyl]amino}phenyl)-N-[8-(4,4-difluoropiperidinyl)-2-(trifluoromethyl)(6-quinolinyl)]formamide]"
18,66,13,"COc1cc2cc(NC(=O)c3ccc(NS(=O)(=O)CCO)cc3N3CCC4(CC3)CC4)nc(N3CCC(F)(F)CC3)c2nn1 [Example 60, N-(8-(4,4-difluoropiperidin-1-yl)-3-methoxypyrido[3,4-c]pyridazin-6-yl)-4-(2-hydroxyethylsulfonamido)-2-(6-azaspiro[2.5]octan-6-yl)benzamide]"
11,35,15,O=C(Nc1cc(N2CCC(F)(F)CC2)c2ncccc2c1)c1ccc(NS(=O)(=O)CCO)cc1N1CCC2(CC1)CC2 [Example 63]
83,149,92,"COc1ccc2cc(NC(=O)c3ccc(NS(=O)(=O)CCO)cc3N3CCC4(CC3)CC4)nc(N3CCC(F)(F)CC3)c2n1 [Example 52, N-(8-(4,4-difluoropiperidin-1-yl)-2-methoxy-1,7-naphthyridin-6-yl)-4-(2-hydroxyethylsulfonamido)-2-(6-azaspiro[2.5]octan-6-yl)benzamide]"
64,39,62,Cn1ncc2c(N3CCC(F)(F)CC3)nc(NC(=O)c3ccc(NS(=O)(=O)CCO)cc3N3CCC4(CC3)CC4)cc21 [Example 36]
13,28,11,"O=C(Nc1cc2ccoc2c(N2CCC(F)(F)CC2)n1)c1ccc(NS(=O)(=O)CCO)cc1N1CCC2(CC1)CC2 [Example 29, N-(7-(4,4-difluoropiperidin-1-yl)furo[2,3-c]pyridin-5-yl)-4-(2-hydroxyethylsulfonamido)-2-(6-azaspiro[2.5]octan-6-yl)benzamide]"
47,943,55,"CNc1ccc2cc(NC(=O)c3ccc(NS(=O)(=O)CCO)cc3N3CCC4(CC3)CC4)c(F)c(N3CCC(F)(F)CC3)c2n1 [Example 79, N-(8-(4,4-difluoropiperidin-1-yl)-7-fluoro-2-(methylamino)quinolin-6-yl)-4-((2-hydroxyethyl)sulfonamido)-2-(6-azaspiro[2.5]oct-6-yl)benzamide]"
236,108,360,CN1CCN(c2nc(NC(=O)c3ccc(NS(=O)(=O)CCO)cc3N3CCC4(CC3)CC4)cc3cccnc23)CC1 [Example 48]
34,46,31,"O=C(Nc1cc2ccc(O)nc2c(N2CCC(F)(F)CC2)c1F)c1ccc(NS(=O)(=O)CCO)cc1N1CCC2(CC1)CC2 [Example 76, N-(8-(4,4-difluoropiperidin-1-yl)-7-fluoro-2-hydroxyquinolin-6-yl)-4-((2-hydroxyethyl)sulfonamido)-2-(6-azaspiro[2.5]oct-6-yl)benzamide]"
12,32,17,O=C(Nc1cc2cncnc2c(N2CCC(F)(F)CC2)n1)c1ccc(NS(=O)(=O)CCO)cc1N1CCC2(CC1)CC2 [Example 58]
11.3,153,17,"C[C@H](CO)S(=O)(=O)Nc1ccc(C(=O)Nc2cc3cccnc3c(N3CCC(F)(F)CC3)n2)c(N2CCC3(CC2)CC3)c1 [Example 96, 2-{6-Azaspiro[2.5]octan-6-yl}-N-[8-(4,4-difluoropiperidin-1-yl)-1,7-naphthyridin-6-yl]-4-[(2R)-1-hydroxypropane-2-sulfonamido]benzamide]"
> 3000,280,> 3000,"CN1Cc2nc(NC(=O)c3ccc(NS(=O)(=O)CCO)cc3N3CCC4(CC3)CC4)nc(N3CCC(F)(F)CC3)c2C1 [Example 8, N-(4-(4,4-difluoropiperidin-1-yl)-6-methyl-6,7-dihydro-5H-pyrrolo[3,4-d]pyrimidin-2-yl)-4-(2-hydroxyethylsulfonamido)-2-(6-azaspiro[2.5]octan-6-yl)benzamide]"
18,9,20,"O=C(Nc1cc2cccnc2c(N2CCC(F)(F)CC2)c1F)c1cnc(NS(=O)(=O)CCO)cc1N1CCC2(CC1)CC2 [Example 80, N-(8-(4,4-difluoropiperidin-1-yl)-7-fluoroquinolin-6-yl)-6-((2-hydroxyethyl)sulfonamido)-4-(6-azaspiro[2.5]oct-6-yl)nicotinamide]"
33,29,56,O=C(Nc1cn2ncnc2c(N2CCC(F)(F)CC2)n1)c1ccc(NS(=O)(=O)CCO)cc1N1CCC2(CC1)CC2 [Example 16]
1350,29,2020,"O=C(Nc1nc2c(c(N3CCC(F)(F)CC3)n1)COC2)c1ccc(NS(=O)(=O)CCO)cc1N1CCC2(CC1)CC2 [Example 4, N-(4-(4,4-difluoropiperidin-1-yl)-5,7-dihydrofuro[3,4-d]pyrimidin-2-yl)-4-(2-hydroxyethylsulfonamido)-2-(6-azaspiro[2.5]octan-6-yl)benzamide]"
74,15,111,"O=C(Nc1cc2cc(O)nnc2c(N2CCC(F)(F)CC2)n1)c1ccc(NS(=O)(=O)CCO)cc1N1CCC2(CC1)CC2 [Example 61, 2-{6-Azaspiro[2.5]octan-6-yl}-N-[8-(4,4-difluoropiperidin-1-yl)-3-hydroxypyrido[3,4-c]pyridazin-6-yl]-4-(2-hydroxyethanesulfonamido)benzamide]"
13,28,12,"Nc1cc2cc(NC(=O)c3ccc(NS(=O)(=O)CCO)cc3N3CCC4(CC3)CC4)nc(N3CCC(F)(F)CC3)c2nn1 [Example 62, N-[3-amino-8-(4,4-difluoropiperidin-1-yl)pyrido[3,4-c]pyridazin-6-yl]-2-{6-azaspiro[2.5]octan-6-yl}-4-(2-hydroxyethanesulfonamido)benzamide]"
28,191,28,"O=C(Nc1cn2cccc2c(N2CCC(F)(F)CC2)n1)c1ccc(NS(=O)(=O)CCO)cc1N1CCC2(CC1)CC2 [Example 11, N-(1-(4,4-difluoropiperidin-1-yl)pyrrolo[1,2-a]pyrazin-3-yl)-4-(2-hydroxyethylsulfonamido)-2-(6-azaspiro[2.5]octan-6-yl)benzamide]"

Compound,IC50 (OVCAR3 cells) [nM],IC50 [1] [nM],IC50 (HT29 cells) [nM]
Cc1ccc2cc(NC(=O)c3ccc(NS(=O)(=O)CCO)cc3N3CCC4(CC3)CC4)cc(N3CCC(F)(F)CC3)c2n1 [Example 64],76,116,82
